Reference: PubChem BioAssay (NCI)
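Abbreviation: GI50, concentration required for 50% inhibition of growth. TGI is the concentration that stops growth completely.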

Experiments:
Experiment in all cases: NCI-60 cell line screen, 384-well format
[1] = tested on: 786-0 renal
[2] = tested on: A498 renal
[3] = tested on: BT-549 breast
[4] = tested on: CAKI-1 renal
[5] = tested on: CCRF-CEM leukemia
[6] = tested on: COLO 205 colon
[7] = tested on: DU-145 prostate
[8] = tested on: HCC-2998 colon
[9] = tested on: HCT-15 colon
[10] = tested on: HOP-62 NSCLC
[11] = tested on: HOP-92 NSCLC
[12] = tested on: HT29 colon
[13] = tested on: IGROV1 ovarian
[14] = tested on: K-562 leukemia
[15] = tested on: KM12 colon
[16] = tested on: LOX IMVI melanoma
[17] = tested on: M14 melanoma
[18] = tested on: MALME-3M melanoma
[19] = tested on: MDA-MB-468 breast
[20] = tested on: MOLT-4 leukemia
[21] = tested on: NCI-H226 lung
[22] = tested on: NCI-H23 lung
[23] = tested on: NCI-H322M lung
[24] = tested on: NCI-H460 NSCLC
[25] = tested on: NCI-H522 lung
[26] = tested on: NCI/ADR-RES ovarian
[27] = tested on: OVCAR-4 ovarian
[28] = tested on: OVCAR-5 ovarian
[29] = tested on: OVCAR-8 ovarian
[30] = tested on: PC-3 prostate
[31] = tested on: RPMI-8226 leukemia
[32] = tested on: RXF 393 renal
[33] = tested on: SF-268 CNS
[34] = tested on: SF-295 CNS
[35] = tested on: SF-539 CNS
[36] = tested on: SK-MEL-2 melanoma
[37] = tested on: SK-MEL-5 melanoma
[38] = tested on: SK-OV-3 ovarian
[39] = tested on: SN12C renal
[40] = tested on: SNB-19 CNS
[41] = tested on: SNB-75 CNS
[42] = tested on: SR leukemia
[43] = tested on: SW-620 colon
[44] = tested on: T-47D breast
[45] = tested on: TK-10 renal
[46] = tested on: UACC-257 melanoma
[47] = tested on: UO-31 renal

Structure (SMILES): CC[C@H](Nc1ncnc2nc[nH]c12)c1nc2cccc(F)c2c(=O)n1-c1ccccc1
- GI50 [1]: 10.6 µM
- TGI [1]: > 100 µM
- GI50 [2]: 4.38 µM
- TGI [2]: 23 µM
- GI50 [3]: 4.22 µM
- TGI [3]: 48.1 µM
- GI50 [4]: 7.37 µM
- TGI [4]: > 67.4 µM
- GI50 [5]: 5.93 µM
- TGI [5]: 25.8 µM
- GI50 [6]: > 67.3 µM
- TGI [6]: > 100 µM
- GI50 [7]: 45 µM
- TGI [7]: > 100 µM
- GI50 [8]: 36.7 µM
- TGI [8]: > 93.5 µM
- GI50 [9]: 30.1 µM
- TGI [9]: > 100 µM
- GI50 [10]: > 59.5 µM
- TGI [10]: > 100 µM
- GI50 [11]: 12.2 µM
- TGI [11]: 98.5 µM
- GI50 [12]: 58.2 µM
- TGI [12]: > 100 µM
- GI50 [13]: 4.31 µM
- TGI [13]: 14.9 µM
- GI50 [14]: 24 µM
- TGI [14]: 82.9 µM
- GI50 [15]: 24.2 µM
- TGI [15]: > 100 µM
- GI50 [16]: 43.2 µM
- TGI [16]: > 100 µM
- GI50 [17]: > 69 µM
- TGI [17]: > 100 µM
- GI50 [18]: 20.8 µM
- TGI [18]: > 89.1 µM
- GI50 [19]: 4.58 µM
- TGI [19]: 15.9 µM
- GI50 [20]: 10 µM
- TGI [20]: 22.1 µM
- GI50 [21]: 37 µM
- TGI [21]: > 100 µM
- GI50 [22]: 38.2 µM
- TGI [22]: > 100 µM
- GI50 [23]: 34.7 µM
- TGI [23]: > 100 µM
- GI50 [24]: 38 µM
- TGI [24]: > 100 µM
- GI50 [25]: 26.1 µM
- TGI [25]: > 100 µM
- GI50 [26]: 54.7 µM
- TGI [26]: > 100 µM
- GI50 [27]: 64.6 µM
- TGI [27]: > 100 µM
- GI50 [28]: > 57.4 µM
- TGI [28]: > 100 µM
- GI50 [29]: 50.3 µM
- TGI [29]: > 100 µM
- GI50 [30]: 6.18 µM
- TGI [30]: > 100 µM
- GI50 [31]: 16.7 µM
- TGI [31]: 36.5 µM
- GI50 [32]: 1.4 µM
- TGI [32]: 9.61 µM
- GI50 [33]: 25.6 µM
- TGI [33]: > 100 µM
- GI50 [34]: 23.1 µM
- TGI [34]: > 76.3 µM
- GI50 [35]: 33.2 µM
- TGI [35]: > 100 µM
- GI50 [36]: 24 µM
- TGI [36]: 70.8 µM
- GI50 [37]: 7.4 µM
- TGI [37]: > 45.7 µM
- GI50 [38]: 30.6 µM
- TGI [38]: > 83.3 µM
- GI50 [39]: 16.6 µM
- TGI [39]: > 100 µM
- GI50 [40]: > 74.4 µM
- TGI [40]: > 100 µM
- GI50 [41]: 0.783 µM
- TGI [41]: 6.15 µM
- GI50 [42]: 16.2 µM
- TGI [42]: 32.6 µM
- GI50 [43]: > 75.8 µM
- TGI [43]: > 100 µM
- GI50 [44]: 5.22 µM
- TGI [44]: 56.4 µM
- GI50 [45]: > 38.3 µM
- TGI [45]: > 94.5 µM
- GI50 [46]: > 74.9 µM
- TGI [46]: > 100 µM
- GI50 [47]: 5.12 µM

Structure (SMILES): CC(C)Nc1cc(-c2c[nH]c(C(=O)N[C@H](CO)c3cccc(Cl)c3)c2)c(Cl)cn1
- GI50 [1]: 3.58 µM
- TGI [1]: 17.1 µM
- GI50 [2]: 1.76 µM
- TGI [2]: 12.7 µM
- GI50 [3]: 3.37 µM
- TGI [3]: 15.4 µM
- GI50 [4]: 1.04 µM
- TGI [4]: 16.5 µM
- GI50 [5]: 2.89 µM
- TGI [5]: 12.5 µM
- GI50 [6]: 0.134 µM
- TGI [6]: 1.07 µM
- GI50 [7]: 9.92 µM
- TGI [7]: 24.3 µM
- GI50 [8]: 0.0896 µM
- TGI [8]: 0.309 µM
- GI50 [9]: 4.5 µM
- TGI [9]: 17.9 µM
- GI50 [10]: 3.19 µM
- TGI [10]: 19.4 µM
- GI50 [11]: 0.445 µM
- TGI [11]: 2.13 µM
- GI50 [12]: 0.289 µM
- TGI [12]: 13.2 µM
- GI50 [13]: 0.496 µM
- TGI [13]: 7.2 µM
- GI50 [14]: 1.45 µM
- TGI [14]: 13.4 µM
- GI50 [15]: 0.547 µM
- TGI [15]: 12.8 µM
- GI50 [16]: 0.184 µM
- TGI [16]: 0.883 µM
- GI50 [17]: 0.0842 µM
- TGI [17]: 0.328 µM
- GI50 [18]: 0.0197 µM
- TGI [18]: 0.076 µM
- GI50 [19]: 6.13 µM
- TGI [19]: 16.1 µM
- GI50 [20]: 1.66 µM
- TGI [20]: 6.58 µM
- GI50 [21]: 1.34 µM
- TGI [21]: 16.6 µM
- GI50 [22]: 0.132 µM
- TGI [22]: 4.12 µM
- GI50 [23]: 2.88 µM
- TGI [23]: 19.4 µM
- GI50 [24]: 0.758 µM
- TGI [24]: 13.6 µM
- GI50 [25]: 1.8 µM
- TGI [25]: 13.2 µM
- GI50 [26]: 9.98 µM
- TGI [26]: 22.2 µM
- GI50 [27]: 11.6 µM
- TGI [27]: 24 µM
- GI50 [28]: 0.567 µM
- TGI [28]: 16.2 µM
- GI50 [29]: 5.72 µM
- TGI [29]: 19.5 µM
- GI50 [30]: 7.81 µM
- TGI [30]: 21.3 µM
- GI50 [31]: 0.366 µM
- TGI [31]: 1.88 µM
- GI50 [32]: 4.14 µM
- TGI [32]: 16.5 µM
- GI50 [33]: 11 µM
- TGI [33]: 23 µM
- GI50 [34]: 7.68 µM
- TGI [34]: 20.2 µM
- GI50 [35]: 4.36 µM
- TGI [35]: 16.2 µM
- GI50 [36]: 0.186 µM
- TGI [36]: 0.467 µM
- GI50 [37]: 0.265 µM
- TGI [37]: 2.04 µM
- GI50 [38]: 6.86 µM
- TGI [38]: 19.6 µM
- GI50 [39]: 6.15 µM
- TGI [39]: 21.4 µM
- GI50 [40]: 9.24 µM
- TGI [40]: 22.5 µM
- GI50 [41]: 13.4 µM
- TGI [41]: 26.2 µM
- GI50 [42]: 1.01 µM
- TGI [42]: 2.21 µM
- GI50 [43]: 0.13 µM
- TGI [43]: 1.82 µM
- GI50 [44]: 9.03 µM
- TGI [44]: 21.9 µM
- GI50 [45]: 2.6 µM
- TGI [45]: 17.3 µM
- GI50 [46]: 0.144 µM
- TGI [46]: 0.498 µM
- GI50 [47]: 3.23 µM
- TGI [47]: 16.8 µM
